Test results as given in US20050276862A1, “Iron sequestering antimicrobial composition” (priority 2004, published 2005).

Experiment: Log stability constants of ligands for metal ions (literature)
Conditions: Fe(III) minus Ca
Source text: A measure of the “affinity” of metal-ion sequestrants for various metal-ions is given by the stability constant (also often referred to as critical stability constants, complex formation constants, equilibrium constants, or formation constants) of that sequestrant for a given metal-ion. […] The ability of a specific molecule or ligand to sequester a metal-ion may depend also upon the pH, the concentrations of interfering ions, and the rate of complex formation (kinetics). Generally, however, the greater the stability constant, the greater the binding affinity for that particular metal-ion. Often the stability constants are expressed as the natural logarithm of the stability constant. Herein the stability constant for the reaction of a metal-ion (M) and a sequestrant or ligand (L) is defined as follows: M+n L⇄MLn
where the stability constant is βn=[MLn]/[M][L]^n, wherein [MLn] is the concentration of “complexed” metal-ion, [M] is the concentration of free (uncomplexed) metal-ion and [L] is the concentration of free ligand. The log of the stability constant is log βn, and n is the number of ligands which coordinate with the metal. It follows from the above equation that if βn is very large, the concentration of “free” metal-ion will be very low. […]

For `O=C(O)CN(CCN(CC(=O)O)CC(=O)O)CCN(CC(=O)O)CC(=O)O` [DTPA, diethylenetriaminepentaacetic acid], the “difference between the log stability constants (specificity)” value was 17.2.
